Test results reported in patent US20240336565A1, “SOLID FORMS OF OSANETANT” (Acer Therapeutics, Inc., priority 2021, published 2024).
“Also recorded” adds a separate entry of the source.

How the values were obtained:
[1] = Salt screen: XRPD of isolated solids after drying at 40° C. and at 40° C./75% RH; type: physicochemical; settings: for XRPD after drying at 40° C./75% RH: after 40° C. drying, dried at 40° C./75% RH for about 24 h, label = form after 40° C. drying; for XRPD after drying at 40° C.: isolated solids dried at 40° C. for about 24 h, label = wet form
Experimental: To approximately 20 mg of amorphous lyophilized osanetant was added 0.3 mL of solvent for liquid counterion experiments. 0.2 mL of solvent was employed for solid counterion experiments. […] To the stirring mixture was then added 1.05 mol eq. of the appropriate counterion. Where solid counterions were used, the vial which contained the counterion was washed in to the osanetant containing vial with 0.1 mL of the appropriate solvent. Additional solvent was added where necessary. The experiments were thermally cycled as follows: heated from 25 to 40° C. at a rate of 0.1° C./min; 1 h at 40° C.; Cool to 5° C. at a rate of 0.1° C.; 1 h at 5° C.; 40° C. at a rate of 0.1° C./min; […] The crystallization experiments were thermally cycled overnight, then slurries were isolated by centrifugation. XRPD analysis was carried out on any isolated solids or gums. The XRPD plate, and the isolated solids, were then dried at 40° C. for about 24 h, and XRPD analysis was repeated. The XRPD plate was then dried at 40° C./75% RH for about 24 h and XRPD analysis was again repeated. All other samples were allowed to evaporated at ambient temperature and pressure.

[2] = Hydration study (stirring in ethanol: water mixtures, XRPD); type: physicochemical
Experimental: (§1) 20 mg of osanetant p-toluenesulfonic acid Form 1 was stirred in the appropriate ethanol: water mixtures for 24 h at 25° C. Where clear solutions were observed after 1 h at 25° C., 0.5 mL of liquor was removed, and additional solid was added until a slurry was maintained. After 24 h total, the experiments were isolated by centrifugation, and the solids were analyzed by XRPD.
as §1, with “Osanetant benzenesulfonic acid” for “20 mg of osanetant p-toluenesulfonic acid”, “Form 3 (20 mg)” for “Form 1”, “was removed from the Aw 0.257 sample,” for “was removed,”

[3] = Disproportionation study (stirring in water, XRPD, pH of liquor); type: physicochemical; settings: 10 mg in 1 mL of water, 24 h at 25° C.
Experimental: After 24 h total, a white slurry was observed and was isolated by centrifugation. The solids were analyzed by XRPD. The pH of the filtered liquor was measured at 5.63. […] After 24 h total, a white slurry was observed and was isolated by centrifugation. The solids were analyzed by XRPD. The pH of the filtered liquor was measured (pH=5.09).

[4] = Comparative studies: 7-day stability; type: physicochemical; settings: for impurities on 7-day stability: 80° C.; for solid form on 7-day stability: 7 days, elevated temperature where stated
Experimental: Osanetant p-toluenesulfonic acid Form 1, osanetant benzene sulfonic acid Form 3, osanetant naphthalene-2-sulfonic acid Form 3, and osanetant phosphoric acid Form 7 were compared. Osanetant phosphoric acid Form 7 was obtained when preparation of osanetant phosphoric acid Form 4 was repeated and found to be not reproducible, and Form 7 was determined to be a mixture of hydrates).
Thus, osanetant benzene sulfonic acid salt Form 1 and osanetant p-toluene sulfonic acid salt Form 1 were identified as advantageous salts.

[5] = Solid form stability observations (scale up / polymorph work: drying, ambient conditions, aqueous media); type: physicochemical
Experimental: Two anhydrous forms of the osanetant p-toluenesulfonic acid were synthesized. […] Form 6, described below, was a stable anhydrous form, but hydrated in water and aqueous solvent mixtures.
Advantageously, Form 1 (hydrate) and Form 6 (anhydrous) were stable on drying. Form 1 re-hydrated at room temperature and pressure after KF analysis, when it was heated in an oven to remove the water.
The experiment was cooled to 5° C. at a rate of 0.1° C./min and stirred at 5° C. for 18 h. The slurry was isolated be Buchner filtration: 42.5 mm Ø grade 1 Whatman filter paper; fast Filtration (<30 s); the cake was washed with 1 mL of ethyl acetate; the isolated solids were dried at 40° C. under vacuum for 72 h. […]

[6] = Thermodynamic solubility in water and pH buffers
[7] = Hygroscopicity / dynamic vapor sorption (DVS); type: physicochemical
Experimental: The osanetant p-toluenesulfonic acid Form 1 solids consisted of aggregated crystals with an undefined morphology. Select peaks which can be used to characterize osanetant p-toluenesulfonic acid Form 1 include one or more of 11.4°2θ±0.2°2θ, 18.0°2θ±0.2°2θ, 19.0°2θ±0.2°2θ, 19.3°2θ±0.2°2θ, 19.8°2θ±0.2°2θ, or 21.1°2θ±0.2°2θ. In some embodiments, osanetant p-toluenesulfonic acid Form 1 is a monohydrate.

CC(=O)N(C)C1(c2ccccc2)CCN(CCC[C@]2(c3ccc(Cl)c(Cl)c3)CCCN(C(=O)c3ccccc3)C2)CC1.O=S(=O)(O)c1ccccc1 [osanetant benzenesulfonic acid Form 3, (R)-N-(1-(3-(1-benzoyl-3-(3,4-dichlorophenyl)piperidin-3-yl)propyl)-4-phenylpiperidin-4-yl)-N-methylacetamide benzenesulfonic acid]
XRPD after drying at 40° C./75% RH [1]: retained; also recorded: stable; also recorded: Form 3
XRPD after drying at 40° C. [1]: Form 3
XRPD form after stirring in ethanol: water mixtures ([2]; 24 h at 25° C., Aw 0.507 and above / high water activity): conversion to osanetant benzenesulfonic acid Form 1; also recorded: converted to osanetant benzene sulfonic acid Form 1
XRPD ([2]; slurry in ethanol:water 63.6:36.4 % v/v, calc Aw 0.745, 24 h at 25° C.): Form 1
XRPD ([2]; slurry in ethanol:water 92.9:7.1 % v/v, calc Aw 0.507, 24 h at 25° C.): Form 1
XRPD ([2]; slurry in ethanol:water 98.4:1.6 % v/v, calc Aw 0.257, 24 h at 25° C.): Form 3
XRPD form / disproportionation after stirring in water [3]: converted to osanetant benzenesulfonic acid Form 1
pH of the filtered liquor [3]: 5.09
solid chemical stability ([4]; 7-day stability results, overall): good
impurities on 7-day stability [4]: slight increase in impurities; also recorded: lowest impurity increase
solid form on 7-day stability [4]: retained form
hydration / form conversion in water and aqueous solvent mixtures [5]: converted to osanetant benzene sulfonic acid salt form Form 1
form on drying ([5]; drying (40° C. under vacuum where stated)): no change
solid form after thermodynamic solubility in pH buffers [6]: converted to Form 1
thermodynamic solubility in pH buffers / buffered systems [6]: low

(R)-N-(1-(3-(1-benzoyl-3-(3,4-dichlorophenyl)piperidin-3-yl)propyl)-4-phenylpiperidin-4-yl)-N-methylacetamide naphthalene-2-sulfonic acid [osanetant naphthalene-2-sulfonic acid Form 3]
XRPD after drying at 40° C./75% RH [1]: retained; also recorded: stable; also recorded: Form 3
XRPD after drying at 40° C. [1]: retained; also recorded: Form 3
impurities on 7-day stability [4]: increase in impurities
solid form on 7-day stability [4]: stable solid form
hygroscopicity / water loss on DVS analysis [7]: more hygroscopic
